The values below come from US6350745B1, “Thrombin inhibitors” (Merck & Co., Inc., priority 1999, dated 2002).

In this test the target is human α-thrombin (Homo sapiens, UniProt P00734). Put plainly: In vitro assay for determining proteinase inhibition (thrombin). Particulars: 25° C., 0.05 M TRIS buffer pH 7.4, 0.15 M NaCl, 0.1% PEG. Format: biochemical. As for the experimental part: In vitro Assay for Determining Proteinase Inhibition
Assays of human α-thrombin and human trypsin were performed by the methods substantially as described in Thrombosis Research, Issue No. 70, page 173 (1993) by S. D. Lewis et al.
The assays were carried out at 25° C. in 0.05 M TRIS buffer pH 7.4, 0.15 M NaCl, 0.1% PEG. Trypsin assays also contained 1 mM CaCl2. In assays wherein rates of hydrolysis of a p-nitroanilide (pna) substrate were determined, a Thermomax 96-well plate reader was used was used to measure (at 405 nm) the time dependent appearance of p-nitroaniline. sar-PR-pna was used to assay human […]thrombin (Km=125 μM) and bovine trypsin (Km=125 μM). p-Nitroanilide substrate concentration was determined from measurements of absorbance at 342 nm using an extinction coefficient of 8270 cm^−1 M^−1.
In certain studies with potent inhibitors (Ki<10 nM) where the degree of inhibition of thrombin was high, a more sensitive activity assay was employed. […]
Activity assays were performed by diluting a stock solution of substrate at least tenfold to a final concentration ≦0.1 Km into a solution containing enzyme or enzyme equilibrated with inhibitor. Times required to achieve equilibration between enzyme and inhibitor were determined in control experiments. Initial velocities of product formation in the absence (Vo) or presence of inhibitor (Vi) were measured. […]

A word on the Ki: it is the dissociation constant of the complex between target and ligand, obtained from inhibition or displacement. Low readings indicate tighter binding, high ones weaker binding. `Cc1cc2c(c(=O)n1CC(=O)NCc1ncccc1F)NC(=O)OC2(CC1CC1)CC1CC1` [compound 3-1] yielded a Ki of under 100 nM.
